This is an account of results in EP4752152A1, “STEROID COMPOUND, AND PREPARATION METHOD THEREFOR AND USE THEREOF” (Cholesgen (Shanghai) Co.Ltd., priority 2023, dated 2025).

Values after ≈ are worked out from the molar mass of the structure shown. Like-named read-outs stand apart in the source and are kept apart here.

One may read the IC50 as the concentration needed to halve the response being measured. One may read the half-life as the time needed for the level to fall by half in the phase considered. Read a low half-life as rapid decline. As usually defined, the solubility is how much of the substance goes into solution per volume.

Data set [1] has as its system SREBP pathway. In words: SREBP luciferase reporter gene system (SRE-luciferase assay). It counts as cell-based, human. The settings on record: Homo sapiens, Huh-7, 16 h, Huh-7/SRE-luc cells, sterol-deficient medium, 0.01-10 µM. The method in brief: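 Readout was SRE-driven luciferase normalised to GFP fluorescence in lysates of stably transfected Huh-7/SRE-luc hepatoma cells. Compounds (0.01, 0.03, 0.1, 0.3, 1.0, 3.0, 10 µM; DMSO control) were applied for 16 h in sterol-depleted medium with 2 µM lovastatin and 10 µM mevalonate; IC50 from variable-slope fit.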
A general note: In a reporter assay the amount or activity of a reporter protein is the signal.

Data set [2] in a line: Metabolic stability experiment of mouse liver microsomes. It counts as in vitro ADME. The protocol: PB solution (100 mM), MgCl2 solution (300 mM), NADPH solution (2.04 mM), and mouse liver microsome (SHQY catalog number: M1000, batch number: 2110330) solution (1.00 mg/mL) were prepared respectively. […] Then, 100 µL of mouse liver microsome solution was added to a 96-well sample plate. For the 0 min sample, acetonitrile solution containing the internal standard was first added; then, 2 µL of 100 µM working solution was added; followed by the addition of 98 µL of pre-warmed 2.04 mM NADPH at 37°C. For the 5 min, 15 min, 30 min, 45 min, and 60 min samples, 2 µL of 100 µM working solution was first added; followed by the addition of 98 µL of pre-warmed 2.04 mM NADPH at 37°C to initiate the reaction; upon reaching the respective time points, a solution of acetonitrile containing the internal standard was added to terminate the reaction. For the NCF60 sample, 2 µL of 100 µM working solution was first added; followed by the addition of 98 µL of pre-warmed PB at 37°C to initiate the reaction; upon reaching the respective time points, a solution of acetonitrile containing the internal standard was added to terminate the reaction. During the experiment, all samples were incubated in a 37°C water bath. All samples were shaken on an oscillator at 800 rpm for 10 min, then centrifuged at 3200 g for 20 min. The supernatant was aspirated, diluted with deionized water at the corresponding ratio, and analyzed by LC-MS/MS. The remaining percentage of the compound at each time point was obtained by dividing the peak area ratio of the compound at 5, 15, 30, 45, and 60 min by the peak area ratio at 0 min. The half-life (T1/2) of the compound was then calculated using Excel. Table 2: Mouse liver microsome stability results of compounds from some examples

Data set [3] in a line: Solubility in fasted-state simulated intestinal fluid (FaSSIF). The settings on record: FaSSIF, pH 6.5, fassif, kinetic from dmso stock, FaSSIF pH 6.5, 300 µM sample solution, room temperature. In kind it is physicochemical. The method in brief: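 Compound from 10.0 mM DMSO stock added to FaSSIF (phosphate/NaCl buffer, pH 6.5) at 300 µM nominal, shaken 1 h at room temperature, 1000 rpm. After centrifugation, supernatant concentration quantified by LC-MS/MS.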

The subject of data set [4] is Fatty Acid Synthase (FASN) gene. In words: Inhibition of FASN gene expression (qPCR) in Huh-7 cells. It counts as cell-based, human. The settings on record: Homo sapiens, Huh-7, 16 h, Huh-7 cells, starvation medium, 16 hours, qPCR, read-out: FASN IC50. The method in brief: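 IC50 derived by four-parameter fit of FASN expression inhibition versus DMSO, measured by RT-qPCR. Compound exposure lasted 16 h at five 3-fold concentrations from 3000 nM, applied to Huh-7 cells in sterol-depleting medium with 5% LPDS, 2 µM lovastatin and 10 µM mevalonate.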

In the case of `C[C@H](CCCC(C)(C)O)[C@H]1CC[C@@]2(C)C3=C(CC[C@]12C)[C@@]1(C)CC[C@H](O)C(C)(C)[C@@H]1CC3` [Comparative compound 1, reference compound], the IC50 was 0.293 µM in data set [1] and 959 nM in data set [4] (numeric value). In data set [2], this compound gave a half-life at 1 µM of 0.131 h. Besides, the solubility at 1 h in data set [3] was 105 µM (≈ 46.7 µg/mL).
For the compound `COc1nc(F)ccc1C(O)CCC[C@@H](C)[C@H]1CC[C@H]2[C@H]3[C@H](CC[C@]12C)[C@@]1(C)CC[C@H](O)[C@H](O)[C@@H]1CC3(F)F` (stereo partly drawn) [Compound 108, (1R,3aS,3bS,5aR,6R,7S,9aR,9bS,11aR)-4,4-difluoro-1-[(2R)-6-(6-fluoro-2-methoxypyridin-3-yl)-6-hydroxyhexan-2-yl]-9a,11a-dimethylhexadecahydro-1H-cyclopenta[1,2-a]phenanthrene-6,7-diol], the IC50 is 0.0359 µM in data set [1] and < 200 nM in data set [4] (class symbols). Also, the half-life at 1 µM in data set [2] stood at 3.08 h. In addition, the concentration in solution in data set [3] (solubility at 1 h) came to 303 µM (≈ 168 µg/mL).
Turning to `COc1cccc(F)c1C(O)CCC[C@@H](C)[C@H]1CC[C@H]2[C@H]3[C@H](CC[C@]12C)[C@@]1(C)CC[C@H](O)[C@H](O)[C@@H]1CC3(F)F` (stereo partly drawn) [Compound 49, (1R,3aS,3bS,5aR,6R,7S,9aR,9bS,11aR)-4,4-difluoro-1-[(2R)-6-(2-fluoro-6-methoxyphenyl)-6-hydroxyhexan-2-yl]-9a,11a-dimethylhexadecahydro-1H-cyclopenta[1,2-a]phenanthrene-6,7-diol], the IC50 is 0.06 µM in data set [1] and 200 to 500 nM in data set [4] (class symbols). In data set [2], this compound displayed a half-life at 1 µM of 1.88 h. In data set [3], this compound had a solubility at 1 h of 281 µM (≈ 155 µg/mL).
In the case of `COc1cc(F)cc(F)c1C(O)CCC[C@@H](C)[C@H]1CC[C@H]2[C@H]3[C@H](CC[C@]12C)[C@@]1(C)CC[C@H](O)[C@H](O)[C@@H]1CC3(F)F` (stereo partly drawn) [Compound 98, (1R,3aS,3bS,5aR,6R,7S,9aR,9bS,11aR)-1-[(2R)-6-(4,6-difluoro-2-methoxyphenyl)-6-hydroxyhexan-2-yl]-4,4-difluoro-9a,11a-dimethylhexadecahydro-1H-cyclopenta[1,2-a]phenanthrene-6,7-diol], the IC50 in data set [1] was 0.095 µM; in data set [4] (class symbols), < 200 nM. In data set [2], this compound came in with a half-life at 1 µM of 4.17 h. Also, the concentration in solution in data set [3] (solubility at 1 h) came to 199 µM (≈ 114 µg/mL).
The matching figures for `COc1cccc(C(O)CCC[C@@H](C)[C@H]2CC[C@H]3[C@H]4[C@H](CC[C@]23C)[C@@]2(C)CC[C@H](O)[C@H](O)[C@@H]2CC4(F)F)c1F` (stereo partly drawn) [Compound 63, (1R,3aS,3bS,5aR,6R,7S,9aR,9bS,11aR)-4,4-difluoro-1-[(2R)-6-(2-fluoro-3-methoxyphenyl)-6-hydroxyhexan-2-yl]-9a,11a-dimethylhexadecahydro-1H-cyclopenta[1,2-a]phenanthrene-6,7-diol]: 0.121 µM, < 200 nM, > 3.08 h and 147 µM (≈ 81.1 µg/mL).
As for `COc1cc(F)ccc1C(O)CCC[C@@H](C)[C@H]1CC[C@H]2[C@H]3[C@H](CC[C@]12C)[C@@]1(C)CC[C@H](O)[C@H](O)[C@@H]1CC3(F)F` (stereo partly drawn) [Compound 35, (1R,3aS,3bS,5aR,6R,7S,9aR,9bS,11aR)-4,4-difluoro-1-[(2R)-6-(4-fluoro-2-methoxyphenyl)-6-hydroxyhexan-2-yl]-9a,11a-dimethylhexadecahydro-1H-cyclopenta[1,2-a]phenanthrene-6,7-diol], the IC50 was 0.051 µM in data set [1] and 200 to 500 nM in data set [4] (class symbols). Moreover, in data set [2], the half-life at 1 µM was > 3.1 h. The amount in solution in data set [3] (solubility at 1 h) came to 160 µM (≈ 88.4 µg/mL).
The matching figures for `COc1cccc(F)c1[C@@H](O)CCC[C@@H](C)[C@H]1CC[C@H]2[C@H]3[C@H](CC[C@]12C)[C@@]1(C)CC[C@H](O)[C@H](O)[C@@H]1CC3(F)F` [Compound 127, (1R,3aS,3bS,5aR,6R,7S,9aR,9bS,11aR)-4,4-difluoro-1-[(2R,6S)-6-(2-fluoro-6-methoxyphenyl)-6-hydroxyhexan-2-yl]-9a,11a-dimethylhexadecahydro-1H-cyclopenta[1,2-a]phenanthrene-6,7-diol]: 0.07 µM, 200 to 500 nM, 1.87 h and 209 µM (≈ 116 µg/mL).
The matching figures for `COc1ncccc1C(O)CCC[C@@H](C)[C@H]1CC[C@H]2[C@H]3[C@H](CC[C@]12C)[C@@]1(C)CC[C@H](O)[C@H](O)[C@@H]1CC3(F)F` (stereo partly drawn) [Compound 81, (1R,3aS,3bS,5aR,6R,7S,9aR,9bS,11aR)-4,4-difluoro-1-[(2R)-6-(2-methoxypyridin-3-yl)-6-hydroxyhexan-2-yl]-9a,11a-dimethylhexadecahydro-1H-cyclopenta[1,2-a]phenanthrene-6,7-diol]: 0.11 µM, < 200 nM, 1.91 h and 279 µM (≈ 150 µg/mL).
The matching figures for `COc1cc(F)ccc1[C@@H](O)CCC[C@@H](C)[C@H]1CC[C@H]2[C@H]3[C@H](CC[C@]12C)[C@@]1(C)CC[C@H](O)[C@H](O)[C@@H]1CC3(F)F` [Compound 140, (1R,3aS,3bS,5aR,6R,7S,9aR,9bS,11aR)-4,4-difluoro-1-[(2R,6S)-6-(4-fluoro-2-methoxyphenyl)-6-hydroxyhexan-2-yl]-9a,11a-dimethylhexadecahydro-1H-cyclopenta[1,2-a]phenanthrene-6,7-diol]: 0.11 µM, < 200 nM, 5.35 h and 178 µM (≈ 98.4 µg/mL).
As for `COc1cc(F)ccc1[C@H](O)CCC[C@@H](C)[C@H]1CC[C@H]2[C@H]3[C@H](CC[C@]12C)[C@@]1(C)CC[C@H](O)[C@H](O)[C@@H]1CC3(F)F` [Compound 141, (1R,3aS,3bS,5aR,6R,7S,9aR,9bS,11aR)-4,4-difluoro-1-[(2R,6R)-6-(4-fluoro-2-methoxyphenyl)-6-hydroxyhexan-2-yl]-9a,11a-dimethylhexadecahydro-1H-cyclopenta[1,2-a]phenanthrene-6,7-diol], the IC50 in data set [1] was 0.017 µM; in data set [4] (class symbols), < 200 nM. The compound also had a half-life at 1 µM in data set [2] of 4.85 h. Also, the solubility at 1 h in data set [3] was 150 µM (≈ 82.9 µg/mL).
Regarding `COc1ccccc1C(O)CCC[C@@H](C)[C@H]1CC[C@H]2[C@H]3[C@H](CC[C@]12C)[C@@]1(C)CC[C@H](O)[C@H](O)[C@@H]1CC3(F)F` (stereo partly drawn) [Compound 37, (1R,3aS,3bS,5aR,6R,7S,9aR,9bS,11aR)-4,4-difluoro-1-[(2R)-6-hydroxy-6-(2-methoxyphenyl)hexan-2-yl]-9a,11a-dimethylhexadecahydro-1H-cyclopenta[1,2-a]phenanthrene-6,7-diol], the IC50 in data set [1] was 0.03 µM; in data set [4] (class symbols) it was 200 to 500 nM. The half-life at 1 µM in data set [2] was 2.19 h. In data set [3], this compound displayed a solubility at 1 h of 207 µM (≈ 111 µg/mL).
